According to patent publication US7781443B2, “Tetrahydronaphthyridine derivatives and a process for preparing the same” (Mitsubishi Tanabe Pharma Corporation, priority 2004, dated 2010):
pIC50: −log10 of the molar value.

Target: T1, CETP (Homo sapiens, UniProt P11597)
T1 construct: from tissue; host or cells: plasma from a healthy volunteer (diluted to 0.64%)
T1 sequence (P11597 18-493): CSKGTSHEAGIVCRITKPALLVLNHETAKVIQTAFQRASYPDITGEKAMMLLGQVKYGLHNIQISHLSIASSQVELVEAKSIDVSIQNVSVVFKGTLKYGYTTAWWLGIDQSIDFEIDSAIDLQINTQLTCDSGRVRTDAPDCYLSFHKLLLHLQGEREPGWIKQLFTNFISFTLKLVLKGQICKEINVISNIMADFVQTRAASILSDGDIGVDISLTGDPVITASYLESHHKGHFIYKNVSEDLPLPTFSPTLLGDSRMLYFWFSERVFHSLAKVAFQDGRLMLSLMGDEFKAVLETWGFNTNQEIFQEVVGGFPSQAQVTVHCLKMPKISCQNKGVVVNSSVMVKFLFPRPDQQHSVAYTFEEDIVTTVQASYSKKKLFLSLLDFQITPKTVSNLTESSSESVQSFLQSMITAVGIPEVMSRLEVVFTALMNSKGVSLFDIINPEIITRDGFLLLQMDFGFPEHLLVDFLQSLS
Assay: Inhibitory activity against CETP in vitro (fluorescent BODIPY-CE transfer from donor to acceptor microemulsion in diluted human plasma)
Format: biochemical
Conditions: plasma from a healthy volunteer diluted to 0.64%; preincubation with test solution 37° C. 24 hours; incubation with donor/acceptor microemulsion 37° C. 3 hours; fluorescence Ex.550 nm/Em.600 nm
Procedure: The inhibitory activity of the compounds of the present invention against CETP was tested in this experiment.
A solution of 1-Palmitoyl-2-oleoyl-sn-glycero-3-phosphocholine (3.5 mg), cholesteryl oleate (3 mg) and triolein (0.7 mg) in chloroform was mixed and lipid was air-dried under nitrogen gas to remove solvent. Dioxane (0.25 ml) was then added and the mixture was stirred for dissolution. The resultant lipid solution (0.2 ml) was slowly injected under the surface of Tris-saline-EDTA(TSE) buffer solution [10 mM Tris/HCl (pH 7.4), 0.15 M NaCl, 2 mM EDTA] (10 ml) with Hamilton syringe, while sonicating in ice-bath. After 1-hour-sonication in ice-bath, the solution was stored at 4° C.
A solution of egg PC (phosphatidylcholine) (0.33 mg) and BODIPY-CE (0.62 mg) in chloroform was mixed. After removing solvent by air-drying lipid under nitrogen gas, TSE buffer solution (3 ml) was added and the solution was sonicated in ice-bath. This solution was filtered to sterilize through 0.22 μm filter and stored at 4° C.
A test solution was prepared using dimethyl sulfoxide as a solvent. Plasma from a healthy volunteer was diluted to 0.64% with TSE buffer, and to the resultant plasma solution (187 μl) was added a test solution (3 μl) or the solvent alone followed by incubation at 37° C. for 24 hours. After addition of TSE buffer solution (10 μl) containing 5% donor microemulsion and 5% acceptor microemulsion, the mixture was incubated at 37° C. for 3 hours. Before and after the incubation, the fluorescence intensity was measured at Ex.550 nm/Em.600 nm. CETP activity was defined as the difference between the measurements obtained before incubation and after incubation. The decreasing rate of the difference in the sample was defined as the inhibition rate of CETP activity. IC50 for each sample was calculated from the inhibition rate of CETP activity.

Question: How did the pIC50 turn out when CCOC(=O)N1c2ccc(OC)nc2[C@@H](N(Cc2cc(C(F)(F)F)cc(C(F)(F)F)c2)c2ncc(OCCC(=O)O)cn2)C[C@H]1CC [Example 269, (2R,4S)-4-{[3,5-bis(trifluoromethyl)benzyl]-[5-(2-carboxyethoxy)pyrimidin-2-yl]}amino-2-ethyl-6-methoxy-3,4-dihydro-2H-[1,5]naphthyridine-1-carboxylic acid ethyl ester] was run?
Answer: Its pIC50 is 8.72.

Question: How did the pIC50 turn out when CCOC(=O)N1c2ccc(OC)nc2[C@@H](N(Cc2cc(C(F)(F)F)cc(C(F)(F)F)c2)c2ncc(N3CCOCC3)cn2)C[C@H]1CC [Example 22] was run?
Answer: Its pIC50 is 9.41.

Question: CC[C@@H]1C[C@H](N(Cc2cc(C(F)(F)F)cc(C(F)(F)F)c2)c2ncc(N3CCOCC3)cn2)c2nc(OC)ccc2N1C(=O)OCC(C)(C)C(=O)O [Example 409] was tested. Which pIC50 did it give?
Answer: The pIC50 was 9.08.

Question: CCOC(=O)N1c2ccc(OC)nc2[C@@H](N(Cc2cc(C(F)(F)F)cc(C(F)(F)F)c2)c2ccc(N3CCC(C(=O)O)CC3)cn2)C[C@H]1CC [Example 383] was tested. Which pIC50 did it give?
Answer: The pIC50 was 8.34.

Question: With CCOC(=O)N1c2ccc(OC)nc2[C@@H](N(Cc2cc(C(F)(F)F)cc(C(F)(F)F)c2)c2ncc(OCCS(C)(=O)=O)cn2)C[C@H]1CC [Example 116] as the compound, how does the pIC50 read?
Answer: The pIC50 was 9.96.

Question: With CCOC(=O)N1c2ccc(N(C)C)nc2[C@@H](N(Cc2cc(C(F)(F)F)cc(C(F)(F)F)c2)c2ncc(N3CCN(C(C)=O)CC3)cn2)C[C@H]1CC [Example 337, (2R,4S)-4-{[5-(4-acetylpiperazin-1-yl)pyrimidin-2-yl]-[3,5-bis(trifluoromethyl)-benzyl]}amino-6-dimethylamino-2-ethyl-3,4-dihydro-2H-[1,5]naphthyridine-1-carboxylic acid ethyl ester] as the compound, how does the pIC50 read?
Answer: Its pIC50 is 9.40.

Question: CCC1CC(N(Cc2cc(C(F)(F)F)cc(C(F)(F)F)c2)c2ncc(CCC(=O)O)cn2)c2nc(OC)ccc2N1C(=O)OCC(F)(F)F (stereo not shown) [Example 356] was tested. Which pIC50 did it give?
Answer: Its pIC50 is 9.01.
